Earlier results as cited in US20140004186A1, “COMPOSITIONS COMPRISING A FATTY ACID OIL MIXTURE COMPRISING EPA AND DHA IN FREE ACID FORM, A SURFACTANT, AND A STATIN” (Pronova Biopharma Norge AS, priority 2010, published 2014).

Key:
[1] = Table 7, other surfactants

Compound | HBL Value [1] | oral bioavailability [%]
CC(O)CO.CCCCCCCCCCCCCCCCCC(=O)O [Propylene glycol monostearate] | 3.4 | 
CC[C@H](C)C(=O)O[C@H]1C[C@H](O)C=C2C=C[C@H](C)[C@H](CC[C@@H](O)C[C@@H](O)CC(=O)O)[C@H]21 [pravastatin] |  | 18
CC(C)c1nc(N(C)S(C)(=O)=O)nc(-c2ccc(F)cc2)c1/C=C/[C@@H](O)C[C@@H](O)CC(=O)O [rosuvastatin] |  | 20
